Usually AC50 stands for the midpoint of the concentration-response curve, whichever way the signal moves. In general, EC50 refers to the concentration needed to bring the measured effect to its halfway point. As usually defined, the Ki is the equilibrium dissociation constant of an inhibitor or competing ligand from its target.

Structures are written as SMILES. The source made the active and inactive calls. Bounds are passed on as bounds.

Test [1] can be described thus: HepG2 cell cytotoxicity, dose response, cytotoxicity control for Shn3 inhibitor project, CellTiter-Glo, cherry-picked (AID 624134). It counts as functional, cell-based. Background: ATP-based viability assays read luminescence as a measure of living cells.
A further test relates to INS1. Kind of test: beta cell apoptosis inhibitors, cytokine rescue, dose response, luminescence, retest (AID 449756).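 Also: cell death triggered by IL-1 beta plus TNF-alpha plus IFN-gamma mixture; protective hits raise ATP signal compared with cytokine alone wells.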 Conditions: Rattus norvegicus. Format: functional, cell-based.
Test [2] in a line: control 3'UTR Renilla luciferase suppression, dose response, counter-screen for Shn3 inhibitor project, cell-based, Clone20-Shn3RL, cherry-picked (AID 624133). Format: functional. Background: The purpose of a counterscreen is to sort out artefacts and off-target activity.
Test [3] in a line: C. albicans growth with fluconazole, confirmation, fluorescence, retest (AID 2467). It counts as functional, cell-based.
Test [4] has as its target Glycogen synthase kinase-3 beta (Homo sapiens, UniProt P49841). It counts as functional.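 Also: value comes from a broad kinome profiling panel, with GSK3B as the panel member.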
Test [5] has as its target Tyrosine-protein kinase BTK (Homo sapiens, UniProt Q06187). It counts as functional.
The target of test [6] is BDNF/NT-3 growth factors receptor (Homo sapiens, UniProt Q16620). It counts as functional.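 Also: NTRK2 measured as one member of a broad kinome-wide kinase profiling panel.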
In test [7] the target is Serine/threonine-protein kinase TAO1 (Homo sapiens, UniProt Q7L7X3). It counts as functional.
Test [8] has as its target Dual specificity mitogen-activated protein kinase kinase 2 (Homo sapiens, UniProt P36507). Nature of the test: Navigating the Kinome. Panel member name: MAP2K2. Format: functional.
For test [9], the target named is Vascular endothelial growth factor receptor 1 (Homo sapiens, UniProt P17948). It counts as functional.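 Also: measured within a kinome-wide profiling panel, FLT1 as the panel member.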
Test [10] addresses Macrophage-stimulating protein receptor (Homo sapiens, UniProt Q04912). Nature of the test: Navigating the Kinome. Panel member name: MST1R. It counts as functional.
Test [11] addresses Tyrosine-protein kinase Fyn (Homo sapiens, UniProt P06241). Format: functional.
The target in test [12] is Ribosomal protein S6 kinase alpha-3 (Homo sapiens, UniProt P51812). It counts as functional.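 Also: measured within a kinome-wide profiling panel.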
Test [13] addresses Dual specificity mitogen-activated protein kinase kinase 1 (Homo sapiens, UniProt Q02750). Kind of test: Navigating the Kinome. Panel member name: MAP2K1. Format: functional.
Another test concerns the target LIM domain kinase 1 (Homo sapiens, UniProt P53667). Nature of the test: Navigating the Kinome. Panel member name: LIMK1. Format: functional.
The target in test [14] is Serine/threonine-protein kinase pim-1 (Homo sapiens, UniProt P11309). Format: functional.
The target of test [15] is Rho-associated protein kinase 1 (Homo sapiens, UniProt Q13464). Format: functional.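 Also: measured within a broad kinome-wide panel profiling many kinases.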
Test [16] has as its target Serine/threonine-protein kinase PAK 4 (Homo sapiens, UniProt O96013). It counts as functional.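 Also: value obtained within a kinome profiling panel in which PAK4 was one of the panel members.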
The target of test [17] is High affinity nerve growth factor receptor (Homo sapiens, UniProt P04629). It counts as functional.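 Also: NTRK1 tested as one member of a kinome-wide profiling panel.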
In test [18] the target is Vascular endothelial growth factor receptor 2 (Homo sapiens, UniProt P35968). It counts as functional.
Test [19] deals with T1, Serine/threonine-protein kinase Nek2 (Homo sapiens, UniProt P51955).
T1 sequence (P51955 whole entry): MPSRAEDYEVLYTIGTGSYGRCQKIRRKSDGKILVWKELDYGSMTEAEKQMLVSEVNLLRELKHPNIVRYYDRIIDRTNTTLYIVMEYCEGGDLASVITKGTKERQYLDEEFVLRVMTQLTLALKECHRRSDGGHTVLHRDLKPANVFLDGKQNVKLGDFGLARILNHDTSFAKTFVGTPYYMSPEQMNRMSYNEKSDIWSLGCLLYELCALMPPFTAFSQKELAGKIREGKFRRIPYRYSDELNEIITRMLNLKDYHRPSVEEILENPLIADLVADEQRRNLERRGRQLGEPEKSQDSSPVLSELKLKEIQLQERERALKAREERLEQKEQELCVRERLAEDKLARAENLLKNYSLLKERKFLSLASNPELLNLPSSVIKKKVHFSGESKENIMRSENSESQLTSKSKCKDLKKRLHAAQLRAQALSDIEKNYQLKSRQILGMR
Format: functional.

In test [20] the target is Dual specificity tyrosine-phosphorylation-regulated kinase 1B (Homo sapiens, UniProt Q9Y463). Nature of the test: Navigating the Kinome. Panel member name: DYRK1B. It counts as functional.
Test [21] deals with Casein kinase I isoform alpha (Homo sapiens, UniProt P48729). Format: functional.
Test [22] deals with Mitogen-activated protein kinase kinase kinase kinase 2 (Homo sapiens, UniProt Q12851). It counts as functional.
Test [23] addresses Serine/threonine-protein kinase D3 (Homo sapiens, UniProt O94806). It counts as functional.
Test [24] addresses Cyclin-dependent kinase 7 (Homo sapiens, UniProt P50613). Format: functional.
In test [25] the target is Fibroblast growth factor receptor 1 (Homo sapiens, UniProt P11362). It counts as functional.
The target of test [26] is G protein-coupled receptor kinase 5 (Homo sapiens, UniProt P34947). Kind of test: Navigating the Kinome. Panel member name: GPRK5. It counts as functional.
For test [27], the target named is Leukocyte tyrosine kinase receptor (Homo sapiens, UniProt P29376). Kind of test: Navigating the Kinome. Panel member name: LTK. It counts as functional.
Test [28] concerns the target T2, cAMP-dependent protein kinase catalytic subunit PRKX (Homo sapiens, UniProt P51817).
T2 sequence (P51817 whole entry): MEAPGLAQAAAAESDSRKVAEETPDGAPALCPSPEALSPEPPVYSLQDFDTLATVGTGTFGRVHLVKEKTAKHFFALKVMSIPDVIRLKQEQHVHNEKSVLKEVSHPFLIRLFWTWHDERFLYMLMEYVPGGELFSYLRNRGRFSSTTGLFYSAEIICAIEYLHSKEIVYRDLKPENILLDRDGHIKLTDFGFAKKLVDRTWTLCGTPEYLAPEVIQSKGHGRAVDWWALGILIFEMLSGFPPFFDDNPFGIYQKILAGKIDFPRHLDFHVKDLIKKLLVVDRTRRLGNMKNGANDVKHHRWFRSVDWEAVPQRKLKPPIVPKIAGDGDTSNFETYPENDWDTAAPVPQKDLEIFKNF
Format: functional.

Test [29] addresses Hepatocyte growth factor receptor (Homo sapiens, UniProt P08581). Format: functional.
The target in the next test is Activin receptor type-1 (Homo sapiens, UniProt Q04771). Nature of the test: Navigating the Kinome. Panel member name: ACVR1. It counts as functional.
Test [30] deals with Serine/threonine-protein kinase Chk1 (Homo sapiens, UniProt O14757). It counts as functional.
Test [31] can be described thus: NIH-3T3 fibroblast cytotoxicity, dose response, cytotoxicity control for antifungal single agent project, cell-based, Alamar Blue, dry powder (AID 602188). It counts as functional.

Sequence of High affinity nerve growth factor receptor (P04629 whole entry): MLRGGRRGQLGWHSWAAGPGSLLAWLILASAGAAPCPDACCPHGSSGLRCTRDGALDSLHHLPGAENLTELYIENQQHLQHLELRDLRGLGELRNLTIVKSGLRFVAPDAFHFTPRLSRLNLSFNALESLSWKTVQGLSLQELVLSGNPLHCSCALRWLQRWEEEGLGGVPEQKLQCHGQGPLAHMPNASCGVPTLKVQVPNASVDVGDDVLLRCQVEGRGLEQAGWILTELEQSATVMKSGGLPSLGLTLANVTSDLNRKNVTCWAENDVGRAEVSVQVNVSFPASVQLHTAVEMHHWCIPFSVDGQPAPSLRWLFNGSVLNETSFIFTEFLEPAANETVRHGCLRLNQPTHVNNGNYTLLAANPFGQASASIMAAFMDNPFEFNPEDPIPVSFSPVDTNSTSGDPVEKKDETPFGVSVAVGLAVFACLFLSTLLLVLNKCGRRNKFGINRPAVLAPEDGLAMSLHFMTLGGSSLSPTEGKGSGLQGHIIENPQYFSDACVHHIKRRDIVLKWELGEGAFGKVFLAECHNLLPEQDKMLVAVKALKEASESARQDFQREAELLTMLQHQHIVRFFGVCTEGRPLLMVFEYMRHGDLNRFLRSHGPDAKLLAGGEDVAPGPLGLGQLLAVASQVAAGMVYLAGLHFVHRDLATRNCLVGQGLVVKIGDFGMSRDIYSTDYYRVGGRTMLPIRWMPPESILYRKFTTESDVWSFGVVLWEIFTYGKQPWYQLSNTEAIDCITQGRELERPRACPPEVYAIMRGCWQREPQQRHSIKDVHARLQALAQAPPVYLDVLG
Sequence of Leukocyte tyrosine kinase receptor (P29376 whole entry): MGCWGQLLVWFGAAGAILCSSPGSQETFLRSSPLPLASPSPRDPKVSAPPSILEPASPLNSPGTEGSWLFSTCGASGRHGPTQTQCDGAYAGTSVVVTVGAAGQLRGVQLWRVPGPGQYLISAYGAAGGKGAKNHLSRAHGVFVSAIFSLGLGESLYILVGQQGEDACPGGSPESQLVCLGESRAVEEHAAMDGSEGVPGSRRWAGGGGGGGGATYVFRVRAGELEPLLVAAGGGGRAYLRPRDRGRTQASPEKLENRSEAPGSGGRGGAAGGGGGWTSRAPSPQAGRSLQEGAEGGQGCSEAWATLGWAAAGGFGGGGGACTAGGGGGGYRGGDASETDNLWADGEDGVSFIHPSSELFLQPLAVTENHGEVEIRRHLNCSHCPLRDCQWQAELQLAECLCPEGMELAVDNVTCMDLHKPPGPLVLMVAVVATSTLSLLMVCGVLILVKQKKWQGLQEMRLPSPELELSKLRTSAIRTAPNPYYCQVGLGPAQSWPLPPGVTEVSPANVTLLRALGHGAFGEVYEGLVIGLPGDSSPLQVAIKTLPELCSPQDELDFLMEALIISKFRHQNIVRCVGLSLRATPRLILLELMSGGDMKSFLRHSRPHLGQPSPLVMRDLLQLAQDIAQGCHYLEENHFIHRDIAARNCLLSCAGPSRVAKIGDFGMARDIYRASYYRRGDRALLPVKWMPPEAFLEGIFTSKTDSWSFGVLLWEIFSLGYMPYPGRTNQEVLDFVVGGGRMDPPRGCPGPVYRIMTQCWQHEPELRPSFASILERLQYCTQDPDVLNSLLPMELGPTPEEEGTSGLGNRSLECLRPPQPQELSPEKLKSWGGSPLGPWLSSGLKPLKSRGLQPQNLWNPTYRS
Sequence of Serine/threonine-protein kinase TAO1 (Q7L7X3 whole entry): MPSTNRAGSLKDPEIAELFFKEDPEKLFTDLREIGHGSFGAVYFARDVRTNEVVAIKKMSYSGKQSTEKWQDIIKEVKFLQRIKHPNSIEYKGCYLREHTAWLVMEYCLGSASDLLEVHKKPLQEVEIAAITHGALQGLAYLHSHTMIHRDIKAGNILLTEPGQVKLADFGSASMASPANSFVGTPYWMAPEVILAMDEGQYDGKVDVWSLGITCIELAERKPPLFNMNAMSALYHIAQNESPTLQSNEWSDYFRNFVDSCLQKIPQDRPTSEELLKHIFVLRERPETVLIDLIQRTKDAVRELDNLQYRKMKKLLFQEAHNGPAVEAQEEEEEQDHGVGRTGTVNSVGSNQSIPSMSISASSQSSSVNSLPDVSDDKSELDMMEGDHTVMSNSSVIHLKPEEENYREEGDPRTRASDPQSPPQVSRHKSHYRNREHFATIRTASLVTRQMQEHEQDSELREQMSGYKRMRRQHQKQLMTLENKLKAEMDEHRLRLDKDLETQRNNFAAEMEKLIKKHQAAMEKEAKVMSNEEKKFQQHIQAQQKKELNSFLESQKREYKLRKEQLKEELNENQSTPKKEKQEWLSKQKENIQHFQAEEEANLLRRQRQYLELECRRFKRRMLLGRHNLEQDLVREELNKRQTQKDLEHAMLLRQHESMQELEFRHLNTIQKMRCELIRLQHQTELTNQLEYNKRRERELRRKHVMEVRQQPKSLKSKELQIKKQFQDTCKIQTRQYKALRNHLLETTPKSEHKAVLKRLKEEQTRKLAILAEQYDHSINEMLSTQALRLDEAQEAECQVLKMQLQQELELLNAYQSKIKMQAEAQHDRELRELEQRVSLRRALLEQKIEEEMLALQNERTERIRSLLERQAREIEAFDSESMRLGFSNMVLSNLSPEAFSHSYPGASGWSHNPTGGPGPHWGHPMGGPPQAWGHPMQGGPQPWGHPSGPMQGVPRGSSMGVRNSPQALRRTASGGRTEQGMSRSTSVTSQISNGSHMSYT
Sequence of Dual specificity mitogen-activated protein kinase kinase 2 (P36507 whole entry): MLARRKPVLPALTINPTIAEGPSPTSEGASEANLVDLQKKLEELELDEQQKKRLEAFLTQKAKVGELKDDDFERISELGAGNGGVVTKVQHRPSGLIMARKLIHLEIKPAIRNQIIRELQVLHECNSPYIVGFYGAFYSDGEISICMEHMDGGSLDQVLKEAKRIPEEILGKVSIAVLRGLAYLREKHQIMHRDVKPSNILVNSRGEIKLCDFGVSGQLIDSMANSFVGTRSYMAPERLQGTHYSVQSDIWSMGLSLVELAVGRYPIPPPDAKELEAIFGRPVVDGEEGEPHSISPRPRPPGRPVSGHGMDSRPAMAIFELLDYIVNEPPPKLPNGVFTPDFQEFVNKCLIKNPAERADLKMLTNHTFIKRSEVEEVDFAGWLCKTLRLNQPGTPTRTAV
Sequence of Tyrosine-protein kinase BTK (Q06187 whole entry): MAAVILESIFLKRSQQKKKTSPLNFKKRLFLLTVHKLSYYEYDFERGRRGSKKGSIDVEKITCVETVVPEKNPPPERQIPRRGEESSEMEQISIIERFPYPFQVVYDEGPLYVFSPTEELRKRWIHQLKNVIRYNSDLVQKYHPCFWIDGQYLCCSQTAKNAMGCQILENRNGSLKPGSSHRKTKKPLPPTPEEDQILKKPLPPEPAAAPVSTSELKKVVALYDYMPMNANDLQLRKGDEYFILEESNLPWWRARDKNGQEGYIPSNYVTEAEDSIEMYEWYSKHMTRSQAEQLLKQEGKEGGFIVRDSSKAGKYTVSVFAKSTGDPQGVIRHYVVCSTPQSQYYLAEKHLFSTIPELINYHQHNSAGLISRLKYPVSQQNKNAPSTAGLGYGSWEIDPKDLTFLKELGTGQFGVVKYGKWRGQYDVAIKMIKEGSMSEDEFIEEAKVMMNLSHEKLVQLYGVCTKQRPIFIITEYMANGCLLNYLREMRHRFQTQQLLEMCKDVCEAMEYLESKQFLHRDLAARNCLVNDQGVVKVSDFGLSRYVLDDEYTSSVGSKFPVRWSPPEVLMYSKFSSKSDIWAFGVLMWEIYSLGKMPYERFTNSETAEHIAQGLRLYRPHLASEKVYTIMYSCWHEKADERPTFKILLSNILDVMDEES
Sequence of Rho-associated protein kinase 1 (Q13464 whole entry): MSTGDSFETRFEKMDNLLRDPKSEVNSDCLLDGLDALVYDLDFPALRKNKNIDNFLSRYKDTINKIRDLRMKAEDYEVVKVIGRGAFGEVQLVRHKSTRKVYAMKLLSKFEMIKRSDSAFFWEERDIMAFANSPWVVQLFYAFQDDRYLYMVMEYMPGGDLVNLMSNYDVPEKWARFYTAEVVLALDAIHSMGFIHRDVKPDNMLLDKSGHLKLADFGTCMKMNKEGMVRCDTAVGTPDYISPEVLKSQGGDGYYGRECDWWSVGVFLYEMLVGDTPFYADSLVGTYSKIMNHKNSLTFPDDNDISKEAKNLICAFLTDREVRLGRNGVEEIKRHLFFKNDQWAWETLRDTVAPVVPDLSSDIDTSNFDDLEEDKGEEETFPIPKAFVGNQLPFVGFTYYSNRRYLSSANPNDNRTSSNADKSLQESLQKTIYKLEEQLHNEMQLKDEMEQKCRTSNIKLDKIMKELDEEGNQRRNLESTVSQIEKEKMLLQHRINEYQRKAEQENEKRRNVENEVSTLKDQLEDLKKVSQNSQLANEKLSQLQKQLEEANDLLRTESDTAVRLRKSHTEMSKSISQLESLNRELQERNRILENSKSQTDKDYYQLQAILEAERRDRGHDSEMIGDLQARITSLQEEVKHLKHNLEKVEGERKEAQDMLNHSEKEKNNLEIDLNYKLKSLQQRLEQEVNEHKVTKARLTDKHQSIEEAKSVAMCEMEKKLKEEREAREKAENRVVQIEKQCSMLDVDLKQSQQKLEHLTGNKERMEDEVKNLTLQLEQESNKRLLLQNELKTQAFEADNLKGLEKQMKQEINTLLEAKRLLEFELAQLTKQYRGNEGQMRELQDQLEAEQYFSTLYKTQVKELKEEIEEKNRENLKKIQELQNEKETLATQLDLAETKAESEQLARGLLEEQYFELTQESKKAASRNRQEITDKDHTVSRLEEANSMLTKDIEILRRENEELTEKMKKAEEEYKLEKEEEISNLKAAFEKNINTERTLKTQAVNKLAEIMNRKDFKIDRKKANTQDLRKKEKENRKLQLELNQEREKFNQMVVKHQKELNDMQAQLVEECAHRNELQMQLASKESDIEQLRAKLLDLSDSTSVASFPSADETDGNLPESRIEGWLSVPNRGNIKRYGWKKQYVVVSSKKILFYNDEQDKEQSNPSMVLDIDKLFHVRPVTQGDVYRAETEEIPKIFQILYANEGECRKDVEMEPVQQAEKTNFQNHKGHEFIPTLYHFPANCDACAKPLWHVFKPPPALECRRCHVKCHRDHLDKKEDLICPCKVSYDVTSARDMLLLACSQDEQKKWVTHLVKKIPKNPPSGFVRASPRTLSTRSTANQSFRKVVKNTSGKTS

Turning to `Cc1ccc(C(=O)OCn2ncc(Cl)c(Cl)c2=O)cc1`, the figures for the AC50 (in [1]; in the test with INS1; in [2]) were 33200 nM (active), 5510 nM (active) and 3150 nM (active), respectively. Further, the concentration for a half-maximal effect (EC50) in [3] was > 38000 nM (not active).

On to `O=C(Nc1cccc(C2Nc3ccc4ccccc4c3C3C=CCC32)c1)c1ccc(F)cc1` (centres undefined), for which the inhibition constant (Ki) was 398 nM (active) in [4]; 5010 nM (active) in [5]; > 3980 nM (inactive) in test [6]; > 6310 nM (inactive) in test [7]; 398 nM (active) in test [8]; > 3980 nM (inactive) in [9]. For the same molecule, the Ki in test [10] is > 3980 nM (inactive); in test [11] it was > 6310 nM (inactive); in test [12] it was > 3980 nM (inactive); in test [13], 1000 nM (active); on LIM domain kinase 1 it was 200 nM (active); in test [14], 316 nM (active). For the same molecule, the Ki is > 3980 nM (inactive) in test [15]; > 5010 nM (inactive) in [16]; 794 nM (active) in test [17]; > 2510 nM (inactive) in test [18]; 1580 nM (active) in test [19]; > 2510 nM (inactive) in test [20]. The Ki in test [21] was 3980 nM (active); in test [22] it was 1260 nM (active); in test [23], > 3980 nM (inactive); in [24], 1260 nM (active); in [25] it was 794 nM (active); in test [26], 1260 nM (active). In addition, the Ki in test [27] is > 2510 nM (inactive); in test [28] it was > 3160 nM (inactive); in test [29], 316 nM (active).

Turning to `Cc1ccc(-c2cc(-c3cc(Br)ccc3O)[nH]c(=O)c2C#N)s1`, the inhibitory constant (Ki) in test [4] was 316 nM (active); at Activin receptor type-1 it was > 3980 nM (inactive); in test [5] it was > 6310 nM (inactive); in test [6] it was 3160 nM (active); in test [7], > 6310 nM (inactive); in [8], 1580 nM (active). The Ki is > 3160 nM (inactive) in test [30]; > 3980 nM (inactive) in [9]; 794 nM (active) in test [10]; 3160 nM (active) in test [11]; > 3160 nM (inactive) in test [13]; > 3160 nM (inactive) at LIM domain kinase 1. For the same molecule, the Ki is 1000 nM (active) in test [14]; 1000 nM (active) in test [15]; 2000 nM (active) in test [16]; 631 nM (active) in test [17]; 631 nM (active) in test [18]; > 3160 nM (inactive) in test [19]. In addition, the inhibition constant Ki was 794 nM (active) in test [20]; > 3980 nM (inactive) in test [21]; > 2510 nM (inactive) in test [22]; > 3980 nM (inactive) in test [23]; > 3980 nM (inactive) in [24]; 1000 nM (active) in [25]. The inhibition constant Ki in test [26] is 1000 nM (active); in [27], > 2510 nM (inactive); in test [28] it was > 3160 nM (inactive); in test [29] it was > 2510 nM (inactive).

On to `CCCC(=O)NC(c1cccs1)c1cc(Cl)c2cccnc2c1O` (centres undefined), for which the AC50 in test [1] is 3760 nM (active); with INS1, 1420 nM (active); in test [2], 4360 nM (active); in test [31], 1060 nM (active). Also, the EC50 in [3] is 707 nM (active).

These data come from ChEMBL document CHEMBL1201862, “PubChem BioAssay data set” (2004).
